Data reported in paper PMC3711124 (Biochemistry, 2008).
No end group written: not given here.

Tests used:
[1] = Circular dichroism of E5TM in DPC micelles; assay type: physicochemical; settings: CD, 5°C-95°C in 10°C increments, 15 mM DPC, pH 7.5, 114 μM peptide
[2] = molecular target: the molecule itself; assay: AUC

Molecule	thermal stability of α-helical structure [1]	stoichiometry N [2]
Ac-KKKFLGLVAAMQLLLLLFLLLFFLVYWDHK [E5TM]	Only a small decrease in α-helical structure was observed	–
KKKFLGLVAAMQLLLLLFLLLFFLVYWDHK (also: end-caps on C- and N-termini, not given here) [E5TM peptide (transmembrane domain of the bovine papillomavirus E5 protein, residues F9-H34, with fl]	–	2
